# Measured values as given in patent publication US9603872B2, “Methods and compositions for mitochondrial replacement therapy” (The McLeon Hospital Corporation, priority 2007, dated 2017).
# Where “and” joins values, the source holds several entries; their conditions need not be identical. Equal entries are not always repeated. Entries after “also recorded” stand apart in the source; their conditions may differ. Where two headings read alike, the source gives them in different places.
# What was measured:
# [1] = system: Control fibroblasts and lymphocytes; details: 2 mM, 3 and 5 days, light microscopy
# Description: Mood stabilizing drugs like lithium are commonly used as treatment for BD (Friedman et al., Biol. Psychiatr. 56:340-348 (2004) and Goodwin et al., JAMA 290:1467-1473 (2003)), and all but one of our subjects with BD was receiving lithium. […] Control fibroblasts and lymphocytes were treated with 2 mM lithium carbonate (LiCO3; approximately twice the average serum level of lithium in patients) for 3 and 5 days. Cells treated with a water vehicle only served as controls.
# The fluorescent marker, MitoTracker-M7510 (Invitrogen, Carlsbad Calif.), was used to visualize mitochondria according to manufacturers instructions. Briefly, fibroblasts were plated at 2.5×10^4 and grown on coverslips, subsequently washed one time with pre-warmed growth media and incubated with M7510 at a final concentration of 250 nM in culture media at 37° C., 5% CO2 for 30 min. Cells were then washed once with culture media and fixed in 4% paraformaldehyde in 100 mM phosphate buffer pH 7.4 for 15 min. Following fixation, coverslips were rinsed two times in PBS and mounted in Gel Mount (Biomedia).
# [2] = system: fibroblasts from BD subjects; experiment: ATP levels by bioluminescence (luciferase) assay after metabolic stress; type: cell-based, human
# Description: (§1) Loss of red JC1 signal relative to monomeric green JC1 indicates collapse of mitochondrial membrane […] (Smiley et al., Proc. Natl. Acad. Sci. 88:3671-3675 (1991) and Cossarizza et al., Biochem. Biophys. Res. Comm. 197:40-45 (1993)).
# (§2) ATP production was measured in cultured fibroblast lines using the Roche ATP Bioluminescence assay kit CLSII following the manufacturer's protocol (Roche Diagnostics, Mannheim, Germany). Briefly, cells were plated at a concentration of 2.5×10^5 cellsper 60 mm dish were used for each experiment and experiments were conducted two days later. Cell lysis was achieved by boiling in lysis solution ([…], 4 mM EDTA, pH=7.75) followed by incubation for 2 min at 100° C. The cells then were centrifuges spun at 1000×g for 1 min. The supernatants were used for total cell ATP determination. Samples were run in triplicate on a 96-well plate MLX luminometer (Dynex Technologies, Chantilly, Va., USA). Integration was delayed for 1 sec after the addition of luciferase and luminescence was measured for 10 seconds at an emission maximum of […]. Following ATP luminescence measurements, data was normalized to protein concentration as determined by the method of Bradford (Bradford DC assay, BioRad, Temecula, Calif., USA) to yield nanograms of ATP per mg of protein. Assays were performed in triplicate.
# (§3) Fibroblasts (n=6) and lymphocytes (n=6) from patients with BD and age-matched controls (Fibroblasts, n=6; lymphocytes, n=6)) were exposed to hydrocortisone to induce mitochondrial stress (REFS). Hydrocortisone (Sigma H0888, St. Louis, Mo., USA) was dissolved in 50% ethanol/50% culture medium to yield a 40 mM stock solution. Hydrocortisone was then diluted to appropriate experimental concentrations (10 nM, 1 uM, 100 uM) with above described growth media. Confluent (85-95%) fibroblasts and lymphocytes (1×10^5 ? 1×10^6) were treated for 24 hr with hydrocortisone (sub-acute stress). Cells treated with vehicle (25% ethanol) alone served as controls. Following hydrocortisone treatment, fibroblasts were examined for alterations in mitochondrial morphology, membrane potential, and ATP levels, as described above. All experiments were performed in triplicate.
# (§4) We also studied an equal number of fibroblast lines from BD and age-matched controls which were exposed to 100 μM hydrogen peroxide for 24 hrs (REFS). ATP levels were assayed as described above. Light microscopic analysis of JC1 to determine changes in mitochondrial membrane potential also were performed as previously described.
# [3] = system: fibroblasts from healthy individuals; experiment: Mitochondrial membrane potential by JC-1 staining after metabolic stress; type: cell-based, human; details: 100 μM HC, 24 hr
# Description: as §1
# (§5) The cationic fluorescent dye, JC-1 (5,5′,6,6′-tetrachloro-1,1′,3,3′-tetraethylbenzimidazolylcarbocyanine iodide) (Strategene, La Jolla, Calif. USA), was used to detect changes in mitochondrial membrane potential according to manufacturer's protocol. JC-1 reagent produces a red fluorescence (absorption/emission maxima=585/590 nm) after accumulation and aggregation in healthy, non-apoptotic cells with intact mitochondrial membrane potential and localizes to the cytoplasm as green with JC-1 monomers fluorescence (absorption/emission maxima=510/527 nm) in cells with compromised membrane potential. Briefly, cell lines were plated at a concentration of 2.5×10^4 on coverslips and were incubated with a 1:100 dilution of pre-warmed JC1 in growth media for 15 to 20 min at 37° C., 5% CO2. Cells were then rinsed once with assay buffer and mounted in PBS and analyzed immediately on a fluorescence microscopy. The coverslips were placed on standard microscopy slides and viewed immediately using a Zeiss Axiskop 2 epifluorescence microscope.
# as §3, §4
# [4] = system: BD fibroblasts; experiment: as above; type: cell-based, human
# Description: as §1, §5, §3, §4
# [5] = system: fibroblasts from BD patients; experiment: Mitochondrial morphology by MitoTracker 7510 after metabolic stress; type: cell-based, human
# Description: as §3, with “The fluorescent marker, MitoTracker-[…] Fibroblasts (n=6)” for “Fibroblasts (n=6)”, “in triplicate. […] ATP levels were assayed as described above.” for “in triplicate.”
# [6] = system: control fibroblasts; experiment: as above; type: cell-based, human
# Description: as §3, with “The fluorescent marker, MitoTracker-[…] Fibroblasts (n=6)” for “Fibroblasts (n=6)”, “in triplicate. […] ATP levels were assayed as described above.” for “in triplicate.”
# [7] = system: control fibroblasts; details: H2O2 treated
# Description: as §1
# as §2, with “triplicate. […]” for “triplicate.”
# [8] = HC treatment, BD and control fibroblasts, data not shown
smiles,measurement,setting,value
"O=C([O-])[O-].[Li+].[Li+] [LiCO3, lithium carbonate]",mitochondrial shape and distribution vs vehicle treated cells,[1],no significant differences in mitochondrial shape and distribution
same,mitochondrial shape and distribution vs vehicle treated cells,[1]; listed as lithium,could not be replicated
C[C@]12CCC(=O)C=C1CC[C@@H]1[C@@H]2[C@@H](O)C[C@@]2(C)[C@H]1CC[C@]2(O)C(=O)CO [hydrocortisone],differences in ATP levels after treatment,[2]; [8],did not reach statistical significance
same,JC-1 staining (red aggregates vs green monomer) vs untreated cells,[3],loss of red mitochondrial aggregates in most cells; also recorded: loss of red mitochondrial aggregates
same,JC1 staining (red aggregates vs green monomer),"[4]; 100 μM HC, 24 hr",an even greater loss of red JC1 mitochondrial aggregates; also recorded: a loss of red JC1 mitochondrial aggregates in the majority of cells
same,ratiometric changes in JC1 after treatment,[4]; [8],did not reach statistical significance
same,mitochondrial morphology (MitoTracker 7510),"[5]; 100 μM HC, 24 hr",perinuclear clustering like that seen in untreated cells but a greater degree of mitochondrial fragmentation
same,mitochondrial morphology (MitoTracker 7510) vs untreated cells,"[6]; 100 μM HC, 24 hr",some loss in the reticular pattern of mitochondria; also recorded: a slight loss in the reticular pattern of the mitochondrial network and greater frequency of perinuclear clustering
"OO [H2O2, hydrogen peroxide]",decrease in ATP levels compared to untreated BD fibroblasts,"[2]; H2O2 treated, p<0.001",83%
same,decrease in ATP levels compared to control cells exposed to H2O2,"[2]; H2O2 treated, p<0.05",93%
same,"ATP levels, mean","[2]; H2O2 treated, method b169: normalized to nanograms of ATP per mg of protein",6.2×10^−5 and 6.2×10^−4
same,JC1 staining (mitochondrial membrane integrity),"[4]; 100 μM H2O2, 24 hrs",severe loss of mitochondrial membrane integrity
same,ATP compared to untreated control cells,[7],no significant difference
same,"ATP levels, mean",[7]; method b169: normalized to nanograms of ATP per mg of protein,9.9×10^−4
same,mitochondrial morphology (MitoTracker 7510) vs untreated cells,"[5]; 100 μM H2O2, 24 hrs","almost complete loss of the mitochondrial network, mitochondrial clustering and dramatic mitochondrial fragmentation"
same,mitochondrial morphology (MitoTracker 7510) vs untreated cells,"[6]; 100 μM H2O2, 24 hrs","a dispersed mitochondrial network with loss of elongated mitochondrial profiles, increased perinuclear clustering, and increased mitochondrial fragmentation; also recorded: dispersion of the mitochondrial network with loss of elongated mitochondrial profiles"
